How the values were obtained:
M. grisea CM = assay: microbe, parasite or virus in culture; type: cell-based, Magnaporthe grisea
Penicillium notatum = assay: Growth test in microtiter plates, HA medium, 24 h, visual evaluation; type: cell-based; set-up: key: +: kein Wachstum im Vergleich zur Wachstumskontrolle; -: Wachstum wie Wachstumskontrolle
M. grisea H2O = assay: microbe, parasite or virus in culture; type: cell-based, Magnaporthe grisea
P. infestans = assay: microbe, parasite or virus in culture; type: cell-based, Phytophthora infestans
[1] = system: alle getesteten Pathogene; type: cell-based; conditions: 5-50 µg/mL
Setaria italica = assay: Crop plant growth test, seeds on filter discs, 4 days, visual evaluation; type: in vivo
Method in brief: (§1)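 Compounds dried from DMSO onto filter discs; about 12 seeds per well with 200 µl sterile tap water, incubated 4 days in a humid chamber under 16 h light/8 h dark. Visual scoring: + means at least 75 % growth inhibition versus control, − means less than 75 %.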

Lepidium sativum = assay: as above; type: in vivo
Method in brief: as §1

Botrytis cinerea = assay: microbe, parasite or virus in culture; type: cell-based
Candida albicans = assay: Growth test in microtiter plates, HA medium, 24 h, visual evaluation; type: cell-based; set-up: key: +: kein Wachstum im Vergleich zur Wachstumskontrolle; -: Wachstum wie Wachstumskontrolle
Paecilomyces variotii = assay: as above; type: cell-based; set-up: key: +: kein Wachstum im Vergleich zur Wachstumskontrolle; -: Wachstum wie Wachstumskontrolle
Mucor miehei = assay: as above; type: cell-based; set-up: key to Aktivität gegenüber M. miehei: +: kein Wachstum im Vergleich zur Wachstumskontrolle; -: Wachstum wie Wachstumskontrolle
[2] = Pyricularia grisea, 24 h, read-out: Aktivität gegenüber M. grisea CM
[3] = Pyricularia grisea, H2O, 24 h, read-out: Aktivität gegenüber M. grisea H2O
[4] = Phytophthora infestans, 24 h, read-out: Aktivität gegenüber P. infestans

Oc1c(F)cc(F)cc1[Se]c1cc(F)cc(F)c1O [Verbindung 25, Bis(3,5-difluoro-2-hydroxyphenyl)selen]
Aktivität gegenüber M. grisea CM (M. grisea CM; 5µg/mL): +++ (mehr als 75 % der Sporen nicht gekeimt) | Aktivität gegenüber M. grisea CM (M. grisea CM; 10µg/mL): +++ (mehr als 75 % der Sporen nicht gekeimt) | Aktivität gegenüber M. grisea CM (M. grisea CM; 25µg/mL): +++ (mehr als 75 % der Sporen nicht gekeimt) | Aktivität gegenüber M. grisea CM (M. grisea CM; 50µg/mL): +++ (mehr als 75 % der Sporen nicht gekeimt) | Aktivität gegenüber P. notatum (Penicillium notatum; 10µg/mL): + | Aktivität gegenüber P. notatum (Penicillium notatum; 50µg/mL): + | Aktivität gegenüber M. grisea H2O (M. grisea H2O; 5µg/mL): +++ (mehr als 75 % der Sporen nicht gekeimt) | Aktivität gegenüber M. grisea H2O (M. grisea H2O; 10µg/mL): +++ (mehr als 75 % der Sporen nicht gekeimt) | Aktivität gegenüber M. grisea H2O (M. grisea H2O; 25µg/mL): +++ (mehr als 75 % der Sporen nicht gekeimt) | Aktivität gegenüber M. grisea H2O (M. grisea H2O; 50µg/mL): +++ (mehr als 75 % der Sporen nicht gekeimt) | Aktivität gegenüber P. infestans (P. infestans; 5µg/mL): +++ (mehr als 75 % der Sporen nicht gekeimt) | Aktivität gegenüber P. infestans (P. infestans; 10µg/mL): +++ (mehr als 75 % der Sporen nicht gekeimt) | Aktivität gegenüber P. infestans (P. infestans; 25µg/mL): +++ (mehr als 75 % der Sporen nicht gekeimt) | Aktivität gegenüber P. infestans (P. infestans; 50µg/mL): +++ (mehr als 75 % der Sporen nicht gekeimt) | Aktivität im Wachstums- und Keimungshemmungstest gegen die getesteten Pathogene [1]: durchgehende Aktivität gegen alle Pathogene | Aktivität gegenüber Nutzpflanzen: S. italica (Setaria italica; 10µg/R): - (weniger als 75 % Wachstumshemmung im Vergleich zur Kontrolle) | Aktivität gegenüber Nutzpflanzen: S. italica (Setaria italica; 20µg/R): + (mind. 75 % Wachstumshemmung im Vergleich zur Kontrolle) | Aktivität gegenüber Nutzpflanzen: S. italica (Setaria italica; 50µg/R): - (weniger als 75 % Wachstumshemmung im Vergleich zur Kontrolle) | Effekt auf S. italica (Setaria italica; […]): deutlichen negativen Effekt | Aktivität gegenüber Nutzpflanzen: L. sativum (Lepidium sativum; 10µg/R): - (weniger als 75 % Wachstumshemmung im Vergleich zur Kontrolle) | Aktivität gegenüber Nutzpflanzen: L. sativum (Lepidium sativum; 20µg/R): + (mind. 75 % Wachstumshemmung im Vergleich zur Kontrolle) | Aktivität gegenüber Nutzpflanzen: L. sativum (Lepidium sativum; 50µg/R): - (weniger als 75 % Wachstumshemmung im Vergleich zur Kontrolle) | Effekt auf L. sativum (Lepidium sativum; […]): deutlichen negativen Effekt | mikrobizide Wirksamkeit gegenüber B. cinerea (Botrytis cinerea): mikrobizide Wirksamkeit | Aktivität gegenüber B. cinerea (Botrytis cinerea; 5µg/mL): + (key: +++: mehr als 75 % der Sporen nicht gekeimt; ++: zwischen 50 und 75 % der Sporen nicht gekeimt; +: zwischen 25 und 50 % der Sporen nicht gekeimt; -: zwischen 0 und 25 % der Sporen nicht gekeimt) | Aktivität gegenüber B. cinerea (Botrytis cinerea; 10µg/mL): +++ (key: +++: mehr als 75 % der Sporen nicht gekeimt; ++: zwischen 50 und 75 % der Sporen nicht gekeimt; +: zwischen 25 und 50 % der Sporen nicht gekeimt; -: zwischen 0 und 25 % der Sporen nicht gekeimt) | Aktivität gegenüber B. cinerea (Botrytis cinerea; 25µg/mL): +++ (key: +++: mehr als 75 % der Sporen nicht gekeimt; ++: zwischen 50 und 75 % der Sporen nicht gekeimt; +: zwischen 25 und 50 % der Sporen nicht gekeimt; -: zwischen 0 und 25 % der Sporen nicht gekeimt) | Aktivität gegenüber B. cinerea (Botrytis cinerea; 50µg/mL): +++ (key: +++: mehr als 75 % der Sporen nicht gekeimt; ++: zwischen 50 und 75 % der Sporen nicht gekeimt; +: zwischen 25 und 50 % der Sporen nicht gekeimt; -: zwischen 0 und 25 % der Sporen nicht gekeimt) | Aktivität gegenüber C. albicans (Candida albicans; 10µg/mL): - | Aktivität gegenüber C. albicans (Candida albicans; 50µg/mL): + | Aktivität gegenüber P. variotii (Paecilomyces variotii; 10µg/mL): + | Aktivität gegenüber P. variotii (Paecilomyces variotii; 50µg/mL): - | Aktivität gegenüber M. miehei (Mucor miehei; 10µg/mL): + | Aktivität gegenüber M. miehei (Mucor miehei; 50µg/mL): +

COc1cc(OC)c([Se]c2cc(OC)c(OC)cc2OC)cc1OC [Verbindung 26, Bis(2,4,5-trimethoxyphenyl)selen]
inhibition of growth at 5 µg/mL (M. grisea CM; [2]): 25 to 50% | inhibition of growth at 10 µg/mL (M. grisea CM; [2]): > 75% | inhibition of growth at 25 µg/mL (M. grisea CM; [2]): > 75% | inhibition of growth at 50 µg/mL (M. grisea CM; [2]): > 75% | Aktivität gegenüber P. notatum (Penicillium notatum; 10µg/mL): - | Aktivität gegenüber P. notatum (Penicillium notatum; 50µg/mL): - | inhibition of growth at 5 µg/mL (M. grisea H2O; [3]): 25 to 50% | inhibition of growth at 10 µg/mL (M. grisea H2O; [3]): > 75% | inhibition of growth at 25 µg/mL (M. grisea H2O; [3]): > 75% | inhibition of growth at 50 µg/mL (M. grisea H2O; [3]): > 75% | inhibition of growth at 5 µg/mL (P. infestans; [4]): 0 to 25% | inhibition of growth at 10 µg/mL (P. infestans; [4]): 0 to 25% | inhibition of growth at 25 µg/mL (P. infestans; [4]): 0 to 25% | inhibition of growth at 50 µg/mL (P. infestans; [4]): 0 to 25% | Wirksamkeit gegenüber P. infestans (P. infestans; […]): keine Wirkung | Aktivität im Wachstums- und Keimungshemmungstest gegen die getesteten Pathogene [1]: fungizider Effekt | Aktivität gegenüber Nutzpflanzen: S. italica (Setaria italica; 10µg/R): - (weniger als 75 % Wachstumshemmung im Vergleich zur Kontrolle) | Aktivität gegenüber Nutzpflanzen: S. italica (Setaria italica; 20µg/R): - (weniger als 75 % Wachstumshemmung im Vergleich zur Kontrolle) | Aktivität gegenüber Nutzpflanzen: S. italica (Setaria italica; 50µg/R): - (weniger als 75 % Wachstumshemmung im Vergleich zur Kontrolle) | Aktivität gegenüber Nutzpflanzen: L. sativum (Lepidium sativum; 10µg/R): - (weniger als 75 % Wachstumshemmung im Vergleich zur Kontrolle) | Aktivität gegenüber Nutzpflanzen: L. sativum (Lepidium sativum; 20µg/R): - (weniger als 75 % Wachstumshemmung im Vergleich zur Kontrolle) | Aktivität gegenüber Nutzpflanzen: L. sativum (Lepidium sativum; 50µg/R): - (weniger als 75 % Wachstumshemmung im Vergleich zur Kontrolle) | inhibition of growth at 5 µg/mL (Botrytis cinerea; Botrytis cinerea, 24 h, 5µg/mL, read-out: Aktivität gegenüber B. cinerea): 0 to 25% | inhibition of growth at 10 µg/mL (Botrytis cinerea; Botrytis cinerea, 24 h, 10µg/mL, read-out: Aktivität gegenüber B. cinerea): 0 to 25% | inhibition of growth at 25 µg/mL (Botrytis cinerea; Botrytis cinerea, 24 h, 25µg/mL, read-out: Aktivität gegenüber B. cinerea): 0 to 25% | inhibition of growth at 50 µg/mL (Botrytis cinerea; Botrytis cinerea, 24 h, 50µg/mL, read-out: Aktivität gegenüber B. cinerea): 0 to 25% | Aktivität gegenüber C. albicans (Candida albicans; 10µg/mL): - | Aktivität gegenüber C. albicans (Candida albicans; 50µg/mL): - | Aktivität gegenüber P. variotii (Paecilomyces variotii; 10µg/mL): - | Aktivität gegenüber P. variotii (Paecilomyces variotii; 50µg/mL): - | Aktivität gegenüber M. miehei (Mucor miehei; 10µg/mL): - | Aktivität gegenüber M. miehei (Mucor miehei; 50µg/mL): + | Aktivität im Wachstumstest mit M. miehei (Mucor miehei; […]): mikrobizide Wirksamkeit
